Measurements: patent US7135292B2, “Analysis and modification of gene expression in marine invertebrate cells” (Harbor Branch Oceanographic Institution, Inc., priority 2002, dated 2006)

System: Axinella corrugata cell cultures
Assay: PCR verification of cdc10 and calcineurin B expression
Assay type: cell-based
Settings: two specimens
Description: cDNA Preparation. cDNA was prepared as described in the array experiments, using unlabeled dCTP instead of the α-^33P dCTP. The final product was then diluted 25-fold in water, loaded onto a DNA recovery column (Zymo Research D4001) and washed according to the manufacturer's protocol followed by elution with four consecutive 25-μl aliquots of nuclease free water. The procedure was then repeated for 40-μl aliquots, with a final elution in two aliquots of 20 μl, to produce twice-washed cDNA. Final template solution was prepared from 10 μl of twice-washed cDNA by addition of 80 μl water and precipitation with 30 μl 5M ammonium acetate and 250 μl ethanol at −20° C. for 30 minutes. Samples were centrifuged at 4° C. for 30 minutes at 10,000×g. Pellets were washed twice with 70% ethanol and air-dried for 15 minutes prior to resuspension in 20 μl nuclease free water. For the -RT control reactions, RNA/DNA template amounts were calculated volumetrically, to correspond with the volume of final template used in each reaction. Since some loss of cDNA can be expected for each of the purification steps, the volume of template used in the -RT control reactions likely exceeds that used in the corresponding test reactions, resulting in overestimation of the possible contribution of DNA background signals, acting as a conservative control.
Primers. […]

phytohemagglutinin [PHA]
cdc10 expression by PCR, PHA treated vs untreated (FIG. 9A): up-regulation | calcineurin B expression by PCR, PHA treated vs untreated (FIG. 9B): down-regulation
